This note sets out measurements from patent US7097865B2, “Inhibition of CYP450 1A2, 2A6, 2C9, 2C19, 2D6, 2E1, and 3A4 in cryopreserved human hepatocytes by a Tripterygium Wilfordii Hook. F. extract” (Novemed Group Limited, priority 2002, dated 2006).

The target of data set [1] is CYP2A6 (Homo sapiens, UniProt P11509). The settings on record: Tranylcypromine 3 μM.
The target in data set [2] is CYP1A2 (Homo sapiens, UniProt P05177). Briefly: in vitro. The following applies: both, hepatocytes. From the text: CYP1A2 activity was characterized by the formation of acetaminophen from phenacetin.
Data set [3] deals with CYP2C19 (Homo sapiens, UniProt P33261). Briefly: in vitro. The settings on record: both, pooled cryopreserved human hepatocytes in suspension, probe S-mephenytoin (20 μM).
The target in data set [4] is T1, CYP2C9 (Homo sapiens, UniProt P11712). Briefly: in vitro. The settings on record: both, hepatocytes.
For data set [5], the target named is T1, CYP2C9. The following applies: Sulfaphenazole 10 μM.

Sequence of CYP2C19 (P33261 whole entry): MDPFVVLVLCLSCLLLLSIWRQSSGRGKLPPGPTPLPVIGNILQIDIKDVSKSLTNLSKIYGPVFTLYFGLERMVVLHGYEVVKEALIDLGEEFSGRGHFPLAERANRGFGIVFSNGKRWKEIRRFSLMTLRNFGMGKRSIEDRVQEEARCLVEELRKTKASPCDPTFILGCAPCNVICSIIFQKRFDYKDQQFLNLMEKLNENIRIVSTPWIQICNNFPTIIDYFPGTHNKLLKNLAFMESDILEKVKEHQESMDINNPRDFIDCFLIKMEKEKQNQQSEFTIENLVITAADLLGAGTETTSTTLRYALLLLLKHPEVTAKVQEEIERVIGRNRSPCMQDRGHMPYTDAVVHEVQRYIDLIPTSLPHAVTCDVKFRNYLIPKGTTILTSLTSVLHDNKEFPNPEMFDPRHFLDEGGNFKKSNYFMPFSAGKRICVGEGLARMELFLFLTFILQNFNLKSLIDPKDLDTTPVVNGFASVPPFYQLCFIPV
Sequence of CYP2A6 (P11509 whole entry): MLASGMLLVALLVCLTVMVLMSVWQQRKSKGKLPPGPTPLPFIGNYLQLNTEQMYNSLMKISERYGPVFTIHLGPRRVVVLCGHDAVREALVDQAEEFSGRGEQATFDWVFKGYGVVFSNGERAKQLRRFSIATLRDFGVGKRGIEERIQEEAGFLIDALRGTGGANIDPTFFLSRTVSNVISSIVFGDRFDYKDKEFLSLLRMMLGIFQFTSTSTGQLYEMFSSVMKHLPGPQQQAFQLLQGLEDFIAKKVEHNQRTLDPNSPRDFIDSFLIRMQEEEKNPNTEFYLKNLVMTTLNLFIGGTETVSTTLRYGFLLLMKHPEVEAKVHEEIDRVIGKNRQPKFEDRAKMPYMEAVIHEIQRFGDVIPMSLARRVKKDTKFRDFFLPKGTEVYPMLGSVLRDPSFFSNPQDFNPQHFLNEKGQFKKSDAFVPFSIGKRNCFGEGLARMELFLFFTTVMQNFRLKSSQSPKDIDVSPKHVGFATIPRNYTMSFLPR
T1 sequence (P11712 whole entry): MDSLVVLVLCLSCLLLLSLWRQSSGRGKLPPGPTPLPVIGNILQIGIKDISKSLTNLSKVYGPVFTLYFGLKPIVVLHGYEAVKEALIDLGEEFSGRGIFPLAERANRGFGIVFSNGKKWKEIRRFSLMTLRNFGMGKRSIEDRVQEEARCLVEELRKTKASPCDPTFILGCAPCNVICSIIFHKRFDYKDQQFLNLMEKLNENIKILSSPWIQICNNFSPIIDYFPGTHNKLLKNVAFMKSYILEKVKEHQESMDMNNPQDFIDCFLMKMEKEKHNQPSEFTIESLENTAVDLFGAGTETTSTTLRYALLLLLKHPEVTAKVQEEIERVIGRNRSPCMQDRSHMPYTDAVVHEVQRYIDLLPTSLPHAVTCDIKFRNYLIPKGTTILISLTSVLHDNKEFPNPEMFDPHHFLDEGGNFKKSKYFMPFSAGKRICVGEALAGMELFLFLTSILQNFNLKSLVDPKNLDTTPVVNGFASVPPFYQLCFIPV
Sequence of CYP1A2 (P05177 whole entry): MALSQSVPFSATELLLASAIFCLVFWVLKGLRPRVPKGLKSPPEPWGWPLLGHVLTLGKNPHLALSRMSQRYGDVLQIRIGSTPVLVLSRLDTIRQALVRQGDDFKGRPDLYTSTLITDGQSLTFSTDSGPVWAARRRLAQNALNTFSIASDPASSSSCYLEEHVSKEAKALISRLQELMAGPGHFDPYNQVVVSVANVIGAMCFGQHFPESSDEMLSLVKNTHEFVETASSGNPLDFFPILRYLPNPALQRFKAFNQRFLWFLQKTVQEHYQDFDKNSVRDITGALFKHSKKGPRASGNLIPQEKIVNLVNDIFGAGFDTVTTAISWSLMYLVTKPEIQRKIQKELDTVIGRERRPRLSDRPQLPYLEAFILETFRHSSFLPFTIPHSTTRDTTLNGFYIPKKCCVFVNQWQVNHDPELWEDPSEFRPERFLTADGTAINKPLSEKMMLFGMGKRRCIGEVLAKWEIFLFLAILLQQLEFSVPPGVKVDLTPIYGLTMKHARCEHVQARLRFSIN

In the case of `N[C@@H]1C[C@H]1c1ccccc1` (racemic) [Tranylcypromine, tranylcypromine], in data set [1], the “CYP2A6 % Inhibition” value is 64.1% and the “CYP2A6 activity % VC” value is recorded as 35.9%.

For `Cc1nc2c([nH]1)c(=O)n(C)c(=O)n2Cc1ccco1` [Furafylline, furafylline], in data set [2], the activity at 60 min, 1 μM is 27.9% and the inhibition – broadly, the change of the read-out against control, counted positive when it falls – at 60 min, 1 μM turned out to be 72.1%.

Consider `COc1ccc2[nH]c([S+]([O-])Cc3ncc(C)c(OC)c3C)nc2c1` (centres unmarked) [Omeprazole, omeprazole], for which, in data set [3], the activity at 60 min, 25 μM was 73.6% and the inhibition at 60 min, 25 μM was found to be 26.4%.

`Nc1ccc(S(=O)(=O)Nc2ccnn2-c2ccccc2)cc1` [Sulfaphenazole, sulfaphenazole] gave an activity at 60 min, 10 μM in data set [4] of 5.02%. Besides, in data set [5], the “CYP2C9 % Inhibition” value was determined as 95.0%.
